In the kinase profiling compilation of Christmann-Franck et al. (2016):
Values joined by “and” are separate entries in the source; they are usually repeats but may differ in a detail not shown here. Equal entries are not always repeated.

Legend:
Assay in all cases: radiometric filter-binding kinase assay, Kinase HotSpot
Conditions in all cases: compound 0.5 µM; ATP 10 µM
DMPK (human) = DMPK (human) (UniProt Q09013)
IRAK1 (human) = IRAK1 (human) (UniProt P51617)
MELK (human) = MELK (human) (UniProt Q14680)
GRK5 (human) = GRK5 (human) (UniProt P34947)
BLK (human) = BLK (human) (UniProt P51451)
MAPK13 (human) = MAPK13 (human) (UniProt O15264)
SRPK3 (human) = SRPK3 (human) (UniProt Q9UPE1)
AKT2 (human) = AKT2 (human) (UniProt P31751)
SGK2 (human) = SGK2 (human) (UniProt Q9HBY8)
PRKACA (human) = PRKACA (human) (UniProt P17612)
TTK (human) = TTK (human) (UniProt P33981)
FGFR2 (human) = FGFR2 (human) (UniProt P21802)
STK25 (human) = STK25 (human) (UniProt O00506)
SLK (human) = SLK (human) (UniProt Q9H2G2)
EPHA8 (human) = EPHA8 (human) (UniProt P29322)
DDR2 (human) = DDR2 (human) (UniProt Q16832)
HIPK3 (human) = HIPK3 (human) (UniProt Q9H422)
HIPK1 (human) = HIPK1 (human) (UniProt Q86Z02)
MYLK (human) = MYLK (human) (UniProt Q15746)
BMX (human) = BMX (human) (UniProt P51813)
CSNK1G1 (human) = CSNK1G1 (human) (UniProt Q9HCP0)
MATK (human) = MATK (human) (UniProt P42679)
PAK2 (human) = PAK2 (human) (UniProt Q13177)
MAPK14 (human) = MAPK14 (human) (UniProt Q16539)
EPHB4 (human) = EPHB4 (human) (UniProt P54760)
CDK9 CCNT1 (human) = CDK9 CCNT1 (human) (UniProt P50750+O60563)
FGFR4 (human) = FGFR4 (human) (UniProt P22455)
CAMK2G (human) = CAMK2G (human) (UniProt Q13555)
STK33 (human) = STK33 (human) (UniProt Q9BYT3)
PLK2 (human) = PLK2 (human) (UniProt Q9NYY3)
PRKCG (human) = PRKCG (human) (UniProt P05129)
SRC (human) = SRC (human) (UniProt P12931)
GSK3A (human) = GSK3A (human) (UniProt P49840)
PAK7 (human) = PAK7 (human) (UniProt Q9P286)
INSR (human) = INSR (human) (UniProt P06213)
TEC (human) = TEC (human) (UniProt P42680)
EPHA7 (human) = EPHA7 (human) (UniProt Q15375)
PLK3 (human) = PLK3 (human) (UniProt Q9H4B4)
CDK6 CCND1 (human) = CDK6 CCND1 (human) (UniProt Q00534+P24385)
NLK (human) = NLK (human) (UniProt Q9UBE8)
CDK5 CDK5R1 p35 (human) = CDK5 CDK5R1 p35 (human) (UniProt Q00535+Q15078)
PRKG1 (human) = PRKG1 (human) (UniProt Q13976)
Chain of PRKG1 (human) (Q13976 whole entry, looked up): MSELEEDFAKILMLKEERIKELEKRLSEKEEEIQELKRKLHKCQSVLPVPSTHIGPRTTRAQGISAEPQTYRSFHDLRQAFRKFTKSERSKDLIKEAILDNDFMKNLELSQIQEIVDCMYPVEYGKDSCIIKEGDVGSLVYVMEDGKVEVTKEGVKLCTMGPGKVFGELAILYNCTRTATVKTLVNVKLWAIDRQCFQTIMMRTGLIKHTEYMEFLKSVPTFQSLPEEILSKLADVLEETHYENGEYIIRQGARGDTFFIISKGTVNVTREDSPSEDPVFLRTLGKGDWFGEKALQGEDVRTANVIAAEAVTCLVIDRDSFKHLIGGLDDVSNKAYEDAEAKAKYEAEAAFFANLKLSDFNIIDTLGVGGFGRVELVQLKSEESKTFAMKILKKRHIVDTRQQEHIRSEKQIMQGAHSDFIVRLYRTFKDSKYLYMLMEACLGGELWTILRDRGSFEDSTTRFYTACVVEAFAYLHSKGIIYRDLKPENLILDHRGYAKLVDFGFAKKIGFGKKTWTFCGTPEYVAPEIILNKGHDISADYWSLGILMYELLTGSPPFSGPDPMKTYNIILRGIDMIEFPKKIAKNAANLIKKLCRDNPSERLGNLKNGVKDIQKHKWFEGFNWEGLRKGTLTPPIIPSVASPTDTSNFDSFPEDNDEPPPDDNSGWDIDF

Chain of AKT2 (human) (P31751 whole entry, looked up): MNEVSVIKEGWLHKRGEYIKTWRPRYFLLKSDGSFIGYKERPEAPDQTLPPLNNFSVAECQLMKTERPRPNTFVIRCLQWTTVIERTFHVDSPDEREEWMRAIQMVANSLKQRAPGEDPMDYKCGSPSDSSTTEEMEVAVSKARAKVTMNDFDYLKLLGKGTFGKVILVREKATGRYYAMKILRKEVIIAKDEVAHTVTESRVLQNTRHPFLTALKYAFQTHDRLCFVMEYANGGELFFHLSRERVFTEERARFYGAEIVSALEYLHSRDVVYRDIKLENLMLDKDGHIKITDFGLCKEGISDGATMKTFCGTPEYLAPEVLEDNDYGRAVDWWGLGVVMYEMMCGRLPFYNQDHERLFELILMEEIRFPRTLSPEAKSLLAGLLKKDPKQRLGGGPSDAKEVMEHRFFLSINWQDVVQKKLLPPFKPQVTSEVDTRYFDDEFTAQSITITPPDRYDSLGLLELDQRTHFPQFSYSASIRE
Chain of BMX (human) (P51813 whole entry, looked up): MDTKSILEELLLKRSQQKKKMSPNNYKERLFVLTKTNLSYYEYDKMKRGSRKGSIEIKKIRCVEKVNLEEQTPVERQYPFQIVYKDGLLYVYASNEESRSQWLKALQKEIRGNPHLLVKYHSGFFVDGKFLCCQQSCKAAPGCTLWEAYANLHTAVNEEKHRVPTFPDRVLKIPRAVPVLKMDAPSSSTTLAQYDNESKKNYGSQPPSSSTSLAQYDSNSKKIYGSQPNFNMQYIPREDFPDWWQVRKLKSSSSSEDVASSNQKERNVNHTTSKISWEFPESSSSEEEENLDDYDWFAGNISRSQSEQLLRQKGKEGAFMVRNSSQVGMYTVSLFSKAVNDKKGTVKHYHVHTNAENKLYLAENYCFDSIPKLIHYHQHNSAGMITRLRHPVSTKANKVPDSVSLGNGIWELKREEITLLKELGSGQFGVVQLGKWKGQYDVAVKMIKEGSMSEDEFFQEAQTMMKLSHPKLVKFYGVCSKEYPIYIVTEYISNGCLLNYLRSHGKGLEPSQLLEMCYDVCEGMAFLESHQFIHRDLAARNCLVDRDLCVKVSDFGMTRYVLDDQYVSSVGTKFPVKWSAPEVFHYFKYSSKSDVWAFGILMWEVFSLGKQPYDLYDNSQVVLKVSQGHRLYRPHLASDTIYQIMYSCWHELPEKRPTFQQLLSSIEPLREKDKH
Chain of PLK2 (human) (Q9NYY3 whole entry, looked up): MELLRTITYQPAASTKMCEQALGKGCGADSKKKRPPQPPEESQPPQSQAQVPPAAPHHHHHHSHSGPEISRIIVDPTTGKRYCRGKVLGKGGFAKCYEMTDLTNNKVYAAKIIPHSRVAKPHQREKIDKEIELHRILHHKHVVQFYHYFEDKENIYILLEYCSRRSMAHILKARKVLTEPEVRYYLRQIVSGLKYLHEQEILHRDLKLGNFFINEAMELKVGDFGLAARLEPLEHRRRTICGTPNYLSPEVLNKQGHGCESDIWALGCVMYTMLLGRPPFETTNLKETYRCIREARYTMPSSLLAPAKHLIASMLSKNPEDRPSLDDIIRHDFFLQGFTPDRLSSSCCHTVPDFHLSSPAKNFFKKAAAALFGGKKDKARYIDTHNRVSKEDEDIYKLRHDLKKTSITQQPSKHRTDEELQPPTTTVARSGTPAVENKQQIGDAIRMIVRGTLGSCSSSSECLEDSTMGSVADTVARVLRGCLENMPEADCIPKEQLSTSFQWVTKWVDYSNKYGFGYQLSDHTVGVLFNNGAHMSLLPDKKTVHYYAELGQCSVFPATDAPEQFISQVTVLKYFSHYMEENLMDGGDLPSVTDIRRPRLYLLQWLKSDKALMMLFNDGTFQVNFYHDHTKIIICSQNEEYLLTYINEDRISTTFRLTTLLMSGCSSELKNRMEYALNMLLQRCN
Chain of GRK5 (human) (P34947 whole entry, looked up): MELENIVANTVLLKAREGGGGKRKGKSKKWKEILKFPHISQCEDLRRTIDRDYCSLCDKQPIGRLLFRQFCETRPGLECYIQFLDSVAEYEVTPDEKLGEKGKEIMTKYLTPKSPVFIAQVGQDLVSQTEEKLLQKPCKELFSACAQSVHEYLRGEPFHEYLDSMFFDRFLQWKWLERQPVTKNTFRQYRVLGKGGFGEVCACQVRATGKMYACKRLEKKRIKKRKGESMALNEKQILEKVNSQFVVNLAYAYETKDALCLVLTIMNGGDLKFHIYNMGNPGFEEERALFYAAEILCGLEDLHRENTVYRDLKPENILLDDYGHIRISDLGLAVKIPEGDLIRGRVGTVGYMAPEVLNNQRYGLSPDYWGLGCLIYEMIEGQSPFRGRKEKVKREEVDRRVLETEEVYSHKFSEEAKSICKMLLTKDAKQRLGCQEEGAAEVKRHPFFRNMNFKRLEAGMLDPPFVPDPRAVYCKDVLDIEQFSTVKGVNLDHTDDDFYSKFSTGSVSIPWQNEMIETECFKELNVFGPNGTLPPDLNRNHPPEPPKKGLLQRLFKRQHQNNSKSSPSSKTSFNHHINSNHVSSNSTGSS
Chain of GSK3A (human) (P49840 whole entry, looked up): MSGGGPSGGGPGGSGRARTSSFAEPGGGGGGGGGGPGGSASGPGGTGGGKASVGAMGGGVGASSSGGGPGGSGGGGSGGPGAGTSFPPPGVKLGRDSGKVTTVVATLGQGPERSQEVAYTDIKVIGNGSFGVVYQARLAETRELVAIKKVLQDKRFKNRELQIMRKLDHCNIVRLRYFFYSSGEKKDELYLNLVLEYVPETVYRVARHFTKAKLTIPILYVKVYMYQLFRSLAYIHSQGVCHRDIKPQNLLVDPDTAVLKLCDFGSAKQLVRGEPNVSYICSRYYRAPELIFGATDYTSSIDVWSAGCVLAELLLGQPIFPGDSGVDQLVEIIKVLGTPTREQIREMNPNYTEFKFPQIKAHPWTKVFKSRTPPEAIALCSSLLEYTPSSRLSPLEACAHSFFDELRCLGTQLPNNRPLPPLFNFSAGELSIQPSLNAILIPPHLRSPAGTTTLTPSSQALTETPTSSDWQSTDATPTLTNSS
Chain of PLK3 (human) (Q9H4B4 whole entry, looked up): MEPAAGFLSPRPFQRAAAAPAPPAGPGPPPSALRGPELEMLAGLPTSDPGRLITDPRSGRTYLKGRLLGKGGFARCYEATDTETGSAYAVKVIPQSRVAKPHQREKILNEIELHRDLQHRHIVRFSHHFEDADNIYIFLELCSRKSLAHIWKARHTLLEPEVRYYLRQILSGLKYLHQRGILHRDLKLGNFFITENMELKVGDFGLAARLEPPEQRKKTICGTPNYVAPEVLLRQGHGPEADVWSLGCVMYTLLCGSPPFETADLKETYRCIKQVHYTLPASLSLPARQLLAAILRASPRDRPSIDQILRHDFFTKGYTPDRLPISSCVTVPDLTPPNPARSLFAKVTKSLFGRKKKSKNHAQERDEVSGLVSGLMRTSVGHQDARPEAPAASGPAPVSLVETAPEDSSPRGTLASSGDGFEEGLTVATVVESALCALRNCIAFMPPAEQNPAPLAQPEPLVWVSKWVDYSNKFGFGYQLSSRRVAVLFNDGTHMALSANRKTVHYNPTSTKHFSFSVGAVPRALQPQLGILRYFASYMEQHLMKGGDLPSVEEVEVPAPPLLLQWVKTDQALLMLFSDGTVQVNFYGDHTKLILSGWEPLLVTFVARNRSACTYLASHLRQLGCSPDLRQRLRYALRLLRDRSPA
Chain of MAPK14 (human) (Q16539 whole entry, looked up): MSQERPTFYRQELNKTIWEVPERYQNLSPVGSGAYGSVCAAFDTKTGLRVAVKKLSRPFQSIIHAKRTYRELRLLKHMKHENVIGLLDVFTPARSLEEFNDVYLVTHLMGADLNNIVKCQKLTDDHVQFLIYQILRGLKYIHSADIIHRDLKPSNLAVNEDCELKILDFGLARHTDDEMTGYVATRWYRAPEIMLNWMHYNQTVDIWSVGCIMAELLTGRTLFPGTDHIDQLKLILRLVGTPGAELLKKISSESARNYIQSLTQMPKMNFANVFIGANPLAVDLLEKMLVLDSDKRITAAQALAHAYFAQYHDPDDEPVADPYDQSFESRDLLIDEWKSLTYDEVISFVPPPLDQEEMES
Chain of SGK2 (human) (Q9HBY8 whole entry, looked up): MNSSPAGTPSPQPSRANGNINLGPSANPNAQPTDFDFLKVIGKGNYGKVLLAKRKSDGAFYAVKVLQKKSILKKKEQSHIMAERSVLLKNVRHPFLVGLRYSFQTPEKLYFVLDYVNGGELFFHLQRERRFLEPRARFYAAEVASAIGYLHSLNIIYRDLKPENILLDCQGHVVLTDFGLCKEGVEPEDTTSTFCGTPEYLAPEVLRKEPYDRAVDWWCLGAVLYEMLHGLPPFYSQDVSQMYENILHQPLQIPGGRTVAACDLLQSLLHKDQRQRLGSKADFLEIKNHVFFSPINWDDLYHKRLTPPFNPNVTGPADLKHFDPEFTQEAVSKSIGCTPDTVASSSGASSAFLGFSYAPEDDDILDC

## COc1ccc(OC)c2c(=S)c3ccccc3[nH]c12
DMPK (human)
  residual activity: 99.6%
IRAK1 (human)
  residual activity: 91.1%
MELK (human)
  residual activity: 96.6%
GRK5 (human)
  residual activity: 108%
BLK (human)
  residual activity: 96.5%
MAPK13 (human)
  residual activity: 103%
SRPK3 (human)
  residual activity: 96.8%
AKT2 (human)
  residual activity: 94.6%
SGK2 (human)
  residual activity: 96.5%
PRKACA (human)
  residual activity: 97.5%
TTK (human)
  residual activity: 99.1%
FGFR2 (human)
  residual activity: 95.8%
STK25 (human)
  residual activity: 96.2%
SLK (human)
  residual activity: 80.2%
EPHA8 (human)
  residual activity: 93.8%
DDR2 (human)
  residual activity: 97.1%
HIPK3 (human)
  residual activity: 101%
HIPK1 (human)
  residual activity: 107%
MYLK (human)
  residual activity: 89.8%
BMX (human)
  residual activity: 105%
CSNK1G1 (human)
  residual activity: 120%
MATK (human)
  residual activity: 89.5%
PAK2 (human)
  residual activity: 104%
MAPK14 (human)
  residual activity: 104%
EPHB4 (human)
  residual activity: 91.1%
CDK9 CCNT1 (human)
  residual activity: 98.8%
FGFR4 (human)
  residual activity: 91.1%
CAMK2G (human)
  residual activity: 95.8%
STK33 (human)
  residual activity: 98.4%
PLK2 (human)
  residual activity: 97.6%
PRKCG (human)
  residual activity: 77.6%
SRC (human)
  residual activity: 90.6%
GSK3A (human)
  residual activity: 104%
PAK7 (human)
  residual activity: 82.9%
INSR (human)
  residual activity: 102%
TEC (human)
  residual activity: 147%
EPHA7 (human)
  residual activity: 89.7%
PLK3 (human)
  residual activity: 99.8%
CDK6 CCND1 (human)
  residual activity: 102%
NLK (human)
  residual activity: 98.8%
CDK5 CDK5R1 p35 (human)
  residual activity: 86.4%
PRKG1 (human)
  residual activity: 101% and 94.4%

## CN(C)C[C@H]1CCn2c(c(C3=C(c4cn(C)c5ccccc45)C(=O)NC3=O)c3ccccc32)C1
DMPK (human)
  residual activity: 106%
IRAK1 (human)
  residual activity: 127%
MELK (human)
  residual activity: 96.4%
GRK5 (human)
  residual activity: 56.2%
BLK (human)
  residual activity: 103%
MAPK13 (human)
  residual activity: 117%
SRPK3 (human)
  residual activity: 100%
AKT2 (human)
  residual activity: 92.6%
SGK2 (human)
  residual activity: 71.7%
PRKACA (human)
  residual activity: 87.2%
TTK (human)
  residual activity: 105%
FGFR2 (human)
  residual activity: 104%
STK25 (human)
  residual activity: 96%
SLK (human)
  residual activity: 83.1%
EPHA8 (human)
  residual activity: 102%
DDR2 (human)
  residual activity: 96%
HIPK3 (human)
  residual activity: 111%
HIPK1 (human)
  residual activity: 101%
MYLK (human)
  residual activity: 84%
BMX (human)
  residual activity: 91.7%
CSNK1G1 (human)
  residual activity: 97%
MATK (human)
  residual activity: 95%
PAK2 (human)
  residual activity: 85.1%
MAPK14 (human)
  residual activity: 108%
EPHB4 (human)
  residual activity: 90.9%
CDK9 CCNT1 (human)
  residual activity: 39.6%
FGFR4 (human)
  residual activity: 89.6%
CAMK2G (human)
  residual activity: 100%
STK33 (human)
  residual activity: 94.8%
PLK2 (human)
  residual activity: 99.9%
PRKCG (human)
  residual activity: 6.93%
SRC (human)
  residual activity: 101%
GSK3A (human)
  residual activity: 14.2%
PAK7 (human)
  residual activity: 100%
INSR (human)
  residual activity: 88%
TEC (human)
  residual activity: 108%
EPHA7 (human)
  residual activity: 96.9%
PLK3 (human)
  residual activity: 100%
CDK6 CCND1 (human)
  residual activity: 70.5%
NLK (human)
  residual activity: 101%
CDK5 CDK5R1 p35 (human)
  residual activity: 85.4%
PRKG1 (human)
  residual activity: 81% and 88.8%
